The results in this text go back to ChEMBL document CHEMBL5291721, “A preclinical secondary pharmacology resource illuminates target-adverse drug reaction associations of marketed drugs” (Nat Commun, 2023).

Experiment [1] deals with T1, Peroxisome proliferator-activated receptor alpha (Homo sapiens, UniProt Q07869).
T1 sequence (Q07869 whole entry): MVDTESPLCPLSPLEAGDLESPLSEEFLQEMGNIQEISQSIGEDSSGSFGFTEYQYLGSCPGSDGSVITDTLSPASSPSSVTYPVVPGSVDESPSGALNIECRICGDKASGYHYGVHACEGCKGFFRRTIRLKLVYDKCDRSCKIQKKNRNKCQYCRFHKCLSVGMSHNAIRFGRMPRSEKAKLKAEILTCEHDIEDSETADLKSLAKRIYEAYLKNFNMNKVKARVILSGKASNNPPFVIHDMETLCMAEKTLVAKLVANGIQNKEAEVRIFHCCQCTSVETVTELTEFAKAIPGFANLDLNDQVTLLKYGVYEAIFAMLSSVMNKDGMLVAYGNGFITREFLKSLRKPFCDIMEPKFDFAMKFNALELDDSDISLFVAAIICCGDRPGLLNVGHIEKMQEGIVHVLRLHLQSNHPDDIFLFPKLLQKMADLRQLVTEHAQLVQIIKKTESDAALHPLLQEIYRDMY
In kind it is functional.

Experiment [2] deals with Rod cGMP-specific 3',5'-cyclic phosphodiesterase subunit alpha (Homo sapiens, UniProt P16499). In kind it is functional.
The next experiment concerns the target D(1B) dopamine receptor (Homo sapiens, UniProt P21918).
Experiment [3] concerns the target T2, Muscarinic acetylcholine receptor M4 (Homo sapiens, UniProt P08173).
T2 sequence (P08173 whole entry): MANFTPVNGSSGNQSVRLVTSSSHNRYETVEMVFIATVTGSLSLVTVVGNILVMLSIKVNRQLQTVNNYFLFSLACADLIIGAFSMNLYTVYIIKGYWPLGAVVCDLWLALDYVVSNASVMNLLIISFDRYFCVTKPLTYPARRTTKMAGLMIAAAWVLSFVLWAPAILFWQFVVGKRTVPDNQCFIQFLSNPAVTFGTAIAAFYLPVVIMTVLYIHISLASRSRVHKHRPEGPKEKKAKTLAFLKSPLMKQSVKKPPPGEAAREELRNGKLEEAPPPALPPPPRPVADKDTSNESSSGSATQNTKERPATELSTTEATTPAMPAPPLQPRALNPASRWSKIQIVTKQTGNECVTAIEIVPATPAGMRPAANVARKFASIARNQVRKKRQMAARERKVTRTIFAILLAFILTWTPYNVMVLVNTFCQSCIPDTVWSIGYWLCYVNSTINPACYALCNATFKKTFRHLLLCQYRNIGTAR

The next experiment concerns the target T3, Substance-K receptor (Homo sapiens, UniProt P21452).
T3 sequence (P21452 whole entry): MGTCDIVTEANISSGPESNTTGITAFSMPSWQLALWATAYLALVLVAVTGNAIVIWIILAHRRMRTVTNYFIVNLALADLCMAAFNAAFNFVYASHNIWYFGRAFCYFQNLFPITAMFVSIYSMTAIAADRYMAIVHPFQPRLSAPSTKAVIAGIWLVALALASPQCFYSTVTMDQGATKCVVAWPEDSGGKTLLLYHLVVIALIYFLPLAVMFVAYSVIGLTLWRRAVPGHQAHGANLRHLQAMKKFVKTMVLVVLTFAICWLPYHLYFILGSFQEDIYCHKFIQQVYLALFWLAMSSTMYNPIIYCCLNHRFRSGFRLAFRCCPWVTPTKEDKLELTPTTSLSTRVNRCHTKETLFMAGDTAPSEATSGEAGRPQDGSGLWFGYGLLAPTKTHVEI

Another experiment addresses T4, Thromboxane A2 receptor (Homo sapiens, UniProt P21731).
T4 sequence (P21731 whole entry): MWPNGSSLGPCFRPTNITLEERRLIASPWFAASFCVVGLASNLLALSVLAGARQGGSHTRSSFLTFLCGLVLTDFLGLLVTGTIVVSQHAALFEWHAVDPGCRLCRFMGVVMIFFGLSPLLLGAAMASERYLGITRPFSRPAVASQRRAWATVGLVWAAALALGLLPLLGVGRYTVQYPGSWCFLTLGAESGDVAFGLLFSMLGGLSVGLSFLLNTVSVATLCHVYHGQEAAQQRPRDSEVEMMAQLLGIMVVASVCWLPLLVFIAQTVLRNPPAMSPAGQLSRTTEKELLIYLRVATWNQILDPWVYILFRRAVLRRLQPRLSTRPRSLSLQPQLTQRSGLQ
Type of experiment: functional, cell-based.

Experiment [4] deals with Sodium-dependent dopamine transporter (Homo sapiens, UniProt Q01959).
The target in experiment [5] is cGMP-inhibited 3',5'-cyclic phosphodiesterase 3A (Homo sapiens, UniProt Q14432). Type of experiment: functional.
Experiment [6] deals with Prostaglandin G/H synthase 1 (Homo sapiens, UniProt P23219). In kind it is functional.
Experiment [7] has as its target Sodium-dependent noradrenaline transporter (Homo sapiens, UniProt P23975).
In a further experiment the target is T5, Estrogen receptor (Homo sapiens, UniProt P03372).
T5 sequence (P03372 whole entry): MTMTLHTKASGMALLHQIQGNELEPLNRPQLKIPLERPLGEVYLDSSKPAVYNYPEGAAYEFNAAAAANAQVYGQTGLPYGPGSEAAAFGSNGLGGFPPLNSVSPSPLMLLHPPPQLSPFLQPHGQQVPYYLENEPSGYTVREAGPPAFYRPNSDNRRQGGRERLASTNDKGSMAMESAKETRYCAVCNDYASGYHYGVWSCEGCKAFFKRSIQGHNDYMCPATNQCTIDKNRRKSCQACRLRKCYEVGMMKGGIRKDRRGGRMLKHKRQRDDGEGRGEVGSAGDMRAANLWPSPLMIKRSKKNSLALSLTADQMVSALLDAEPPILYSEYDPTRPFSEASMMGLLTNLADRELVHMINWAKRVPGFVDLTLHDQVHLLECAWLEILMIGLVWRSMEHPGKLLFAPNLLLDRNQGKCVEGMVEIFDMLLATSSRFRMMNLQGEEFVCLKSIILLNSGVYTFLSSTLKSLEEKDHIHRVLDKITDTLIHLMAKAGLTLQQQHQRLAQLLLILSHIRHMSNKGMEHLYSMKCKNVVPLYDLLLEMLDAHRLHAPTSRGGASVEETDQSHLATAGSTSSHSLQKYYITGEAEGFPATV

Experiment [8] deals with 5-hydroxytryptamine receptor 2B (Homo sapiens, UniProt P41595). Type of experiment: functional, cell-based.
Note: assay procedure not described here.

Sequence of D(1B) dopamine receptor (P21918 whole entry): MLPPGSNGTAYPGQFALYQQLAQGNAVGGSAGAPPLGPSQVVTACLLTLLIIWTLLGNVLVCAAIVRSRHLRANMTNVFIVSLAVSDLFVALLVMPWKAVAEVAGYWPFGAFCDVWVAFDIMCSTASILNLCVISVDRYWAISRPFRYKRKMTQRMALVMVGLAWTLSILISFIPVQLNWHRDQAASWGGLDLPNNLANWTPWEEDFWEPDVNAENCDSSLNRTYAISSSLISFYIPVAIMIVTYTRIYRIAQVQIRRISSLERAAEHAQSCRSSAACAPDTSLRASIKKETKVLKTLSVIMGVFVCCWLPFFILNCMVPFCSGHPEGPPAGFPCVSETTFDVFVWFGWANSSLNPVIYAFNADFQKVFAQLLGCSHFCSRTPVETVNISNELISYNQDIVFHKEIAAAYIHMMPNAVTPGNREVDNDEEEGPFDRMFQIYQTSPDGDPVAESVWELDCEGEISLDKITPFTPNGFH
Sequence of Rod cGMP-specific 3',5'-cyclic phosphodiesterase subunit alpha (P16499 whole entry): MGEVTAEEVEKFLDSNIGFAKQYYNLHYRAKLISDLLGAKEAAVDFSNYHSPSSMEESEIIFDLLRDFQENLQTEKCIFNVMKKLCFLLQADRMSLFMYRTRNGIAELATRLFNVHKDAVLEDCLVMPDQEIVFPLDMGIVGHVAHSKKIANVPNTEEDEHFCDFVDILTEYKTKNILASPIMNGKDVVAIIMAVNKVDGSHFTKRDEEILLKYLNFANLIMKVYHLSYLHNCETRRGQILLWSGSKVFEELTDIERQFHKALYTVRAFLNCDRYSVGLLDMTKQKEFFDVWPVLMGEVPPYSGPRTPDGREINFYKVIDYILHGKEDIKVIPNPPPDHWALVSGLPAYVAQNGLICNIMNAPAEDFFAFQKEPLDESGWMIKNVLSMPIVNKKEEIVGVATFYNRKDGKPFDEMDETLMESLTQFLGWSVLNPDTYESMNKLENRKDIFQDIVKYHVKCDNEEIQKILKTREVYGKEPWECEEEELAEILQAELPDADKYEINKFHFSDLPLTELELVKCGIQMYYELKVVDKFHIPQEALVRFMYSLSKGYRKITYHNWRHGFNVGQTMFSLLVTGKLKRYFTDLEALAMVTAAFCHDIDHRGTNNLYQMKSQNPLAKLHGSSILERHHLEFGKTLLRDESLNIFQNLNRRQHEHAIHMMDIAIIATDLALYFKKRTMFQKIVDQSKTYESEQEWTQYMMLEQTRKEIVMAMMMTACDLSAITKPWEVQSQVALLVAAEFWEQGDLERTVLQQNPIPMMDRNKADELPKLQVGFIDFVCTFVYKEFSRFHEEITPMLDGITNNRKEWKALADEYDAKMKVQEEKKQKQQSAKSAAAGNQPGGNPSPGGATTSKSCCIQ
Sequence of 5-hydroxytryptamine receptor 2B (P41595 whole entry): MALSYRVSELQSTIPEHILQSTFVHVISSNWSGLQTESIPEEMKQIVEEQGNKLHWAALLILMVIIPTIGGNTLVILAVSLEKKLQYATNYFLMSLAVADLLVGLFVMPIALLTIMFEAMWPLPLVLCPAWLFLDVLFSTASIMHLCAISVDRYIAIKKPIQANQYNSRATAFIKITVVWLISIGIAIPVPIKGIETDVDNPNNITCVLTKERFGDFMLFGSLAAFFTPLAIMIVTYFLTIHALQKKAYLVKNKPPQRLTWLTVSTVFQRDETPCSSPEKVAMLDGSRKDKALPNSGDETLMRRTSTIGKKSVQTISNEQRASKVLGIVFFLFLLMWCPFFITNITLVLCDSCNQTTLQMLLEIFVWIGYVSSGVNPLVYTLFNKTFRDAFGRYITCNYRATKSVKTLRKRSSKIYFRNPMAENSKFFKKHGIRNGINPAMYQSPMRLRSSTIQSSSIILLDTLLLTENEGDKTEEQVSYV
Sequence of cGMP-inhibited 3',5'-cyclic phosphodiesterase 3A (Q14432 whole entry): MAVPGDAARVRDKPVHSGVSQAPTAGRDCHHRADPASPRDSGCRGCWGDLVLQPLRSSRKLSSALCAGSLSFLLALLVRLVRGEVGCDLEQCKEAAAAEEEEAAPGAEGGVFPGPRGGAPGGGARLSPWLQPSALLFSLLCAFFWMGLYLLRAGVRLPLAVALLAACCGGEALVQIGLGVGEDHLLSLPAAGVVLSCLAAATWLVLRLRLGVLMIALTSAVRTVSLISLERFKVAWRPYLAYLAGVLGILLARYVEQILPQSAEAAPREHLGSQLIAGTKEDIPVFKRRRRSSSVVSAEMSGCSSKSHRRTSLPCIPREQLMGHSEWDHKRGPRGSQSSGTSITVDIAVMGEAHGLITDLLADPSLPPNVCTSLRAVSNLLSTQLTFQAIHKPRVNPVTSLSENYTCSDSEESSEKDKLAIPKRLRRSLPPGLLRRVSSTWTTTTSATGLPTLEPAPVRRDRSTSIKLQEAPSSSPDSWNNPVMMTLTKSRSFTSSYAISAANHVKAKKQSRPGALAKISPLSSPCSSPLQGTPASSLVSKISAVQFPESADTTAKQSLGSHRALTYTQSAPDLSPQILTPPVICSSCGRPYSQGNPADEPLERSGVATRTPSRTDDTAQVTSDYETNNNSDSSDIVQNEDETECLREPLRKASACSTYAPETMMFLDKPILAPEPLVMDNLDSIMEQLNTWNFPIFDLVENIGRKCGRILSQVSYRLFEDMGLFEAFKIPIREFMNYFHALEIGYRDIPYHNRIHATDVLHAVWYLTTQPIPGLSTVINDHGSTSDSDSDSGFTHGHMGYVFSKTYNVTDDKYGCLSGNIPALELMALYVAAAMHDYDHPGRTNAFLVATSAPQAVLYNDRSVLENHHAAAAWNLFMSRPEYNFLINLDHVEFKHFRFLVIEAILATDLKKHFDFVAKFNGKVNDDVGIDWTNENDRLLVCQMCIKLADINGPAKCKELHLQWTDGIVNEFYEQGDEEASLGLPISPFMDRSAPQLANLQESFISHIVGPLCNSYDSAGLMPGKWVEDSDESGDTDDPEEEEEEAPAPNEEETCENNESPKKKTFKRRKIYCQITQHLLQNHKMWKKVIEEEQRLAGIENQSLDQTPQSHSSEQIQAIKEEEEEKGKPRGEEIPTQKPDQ
Sequence of Prostaglandin G/H synthase 1 (P23219 whole entry): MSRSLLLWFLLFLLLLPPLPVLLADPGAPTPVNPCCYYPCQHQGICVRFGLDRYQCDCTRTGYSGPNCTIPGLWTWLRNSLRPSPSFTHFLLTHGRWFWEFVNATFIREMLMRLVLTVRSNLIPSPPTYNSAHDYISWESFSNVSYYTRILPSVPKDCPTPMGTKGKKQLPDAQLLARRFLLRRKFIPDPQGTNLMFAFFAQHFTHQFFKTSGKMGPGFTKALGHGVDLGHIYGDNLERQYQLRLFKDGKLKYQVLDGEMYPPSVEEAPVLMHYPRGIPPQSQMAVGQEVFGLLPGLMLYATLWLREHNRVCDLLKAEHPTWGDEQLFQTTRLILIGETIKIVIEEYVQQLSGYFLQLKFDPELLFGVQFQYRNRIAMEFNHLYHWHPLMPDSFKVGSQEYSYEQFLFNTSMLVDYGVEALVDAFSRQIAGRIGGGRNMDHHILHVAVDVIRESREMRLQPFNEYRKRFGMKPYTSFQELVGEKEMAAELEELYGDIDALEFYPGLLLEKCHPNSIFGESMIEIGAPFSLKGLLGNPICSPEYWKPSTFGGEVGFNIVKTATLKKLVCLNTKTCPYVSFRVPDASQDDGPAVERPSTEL
Sequence of Sodium-dependent noradrenaline transporter (P23975 whole entry): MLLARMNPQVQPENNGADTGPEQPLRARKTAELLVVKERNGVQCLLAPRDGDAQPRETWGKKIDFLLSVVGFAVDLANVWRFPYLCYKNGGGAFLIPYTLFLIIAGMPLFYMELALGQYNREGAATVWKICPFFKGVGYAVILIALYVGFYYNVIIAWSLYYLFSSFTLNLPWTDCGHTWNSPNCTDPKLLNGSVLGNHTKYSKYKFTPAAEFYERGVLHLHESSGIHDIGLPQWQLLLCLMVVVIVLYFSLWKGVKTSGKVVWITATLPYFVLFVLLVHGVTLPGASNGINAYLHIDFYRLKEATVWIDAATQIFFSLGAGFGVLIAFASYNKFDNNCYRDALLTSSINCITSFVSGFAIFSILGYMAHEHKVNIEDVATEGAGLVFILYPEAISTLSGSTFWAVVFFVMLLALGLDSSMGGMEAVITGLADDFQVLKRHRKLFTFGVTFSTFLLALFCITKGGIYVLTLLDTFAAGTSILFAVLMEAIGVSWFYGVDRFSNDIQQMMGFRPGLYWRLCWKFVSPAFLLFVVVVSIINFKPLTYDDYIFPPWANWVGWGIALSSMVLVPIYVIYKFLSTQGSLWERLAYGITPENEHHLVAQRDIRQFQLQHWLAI
Sequence of Sodium-dependent dopamine transporter (Q01959 whole entry): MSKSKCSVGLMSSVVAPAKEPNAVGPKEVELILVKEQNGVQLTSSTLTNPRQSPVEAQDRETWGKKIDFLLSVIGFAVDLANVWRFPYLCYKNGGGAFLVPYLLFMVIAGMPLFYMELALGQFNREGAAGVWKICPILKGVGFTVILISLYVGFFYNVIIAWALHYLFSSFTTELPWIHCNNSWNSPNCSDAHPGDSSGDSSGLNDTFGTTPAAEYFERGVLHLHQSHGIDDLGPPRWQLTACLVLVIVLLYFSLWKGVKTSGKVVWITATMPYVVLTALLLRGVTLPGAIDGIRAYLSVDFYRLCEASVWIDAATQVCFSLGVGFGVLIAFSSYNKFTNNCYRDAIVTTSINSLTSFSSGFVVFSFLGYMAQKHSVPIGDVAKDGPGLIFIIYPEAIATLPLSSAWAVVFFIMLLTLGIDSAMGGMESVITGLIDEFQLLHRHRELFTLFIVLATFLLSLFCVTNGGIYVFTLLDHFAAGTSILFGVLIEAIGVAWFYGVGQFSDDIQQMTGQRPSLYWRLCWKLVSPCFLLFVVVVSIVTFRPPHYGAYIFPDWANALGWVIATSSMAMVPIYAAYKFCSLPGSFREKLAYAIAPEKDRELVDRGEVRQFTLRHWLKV

For `CC(C)c1c(C(=O)Nc2ccccc2)c(-c2ccccc2)c(-c2ccc(F)cc2)n1CC[C@@H](O)C[C@@H](O)CC(=O)O` [ATORVASTATIN], the AC50 in experiment [1] was more than 30 µM.
With `CN(C)C(=O)OC1N=C(c2ccccc2)c2cc(Cl)ccc2N(C)C1=O` (stereo not given) [CAMAZEPAM], the AC50 (in [2]; at D(1B) dopamine receptor; in experiment [3]; on Substance-K receptor) was more than 10 µM each time.
`CC(C)(Oc1ccc(C2CC2(Cl)Cl)cc1)C(=O)O` (stereo not given) [CIPROFIBRATE]: the AC50 in [1] is more than 30 µM.
Consider `NC(=O)C[S+]([O-])C(c1ccccc1)c1ccccc1` (stereo not given) [MODAFINIL], for which the AC50 (in [2]; at D(1B) dopamine receptor; in experiment [3]; at Substance-K receptor) was more than 10 µM throughout.
Consider `O=C(O)CCCc1ccccc1` [PHENYLBUTANOIC ACID], for which the AC50 (in experiment [3]; at Substance-K receptor) was more than 10 µM each time.
For `Nc1nc2ccc(OC(F)(F)F)cc2s1` [RILUZOLE], the AC50 is more than 30 µM on Thromboxane A2 receptor; 18.7 µM in [4]; more than 30 µM in [5]; more than 30 µM in [6]; 2.59 µM in experiment [7]; more than 30 µM at Estrogen receptor. The molecule also yielded an AC50 in [8] of more than 30 µM.
On to `Cc1ccc(-c2nc3ccc(C)cn3c2CC(=O)N(C)C)cc1` [ZOLPIDEM], for which the AC50 (in [2]; on D(1B) dopamine receptor; in experiment [3]; on Substance-K receptor) was more than 10 µM in each case.
With BIVALIRUDIN, the AC50 (on Thromboxane A2 receptor; in experiment [4]; in [5]; in experiment [6]; in experiment [7]; on Estrogen receptor) was more than 30 µM in each case. In addition, the AC50 in [8] is more than 30 µM.

As a reminder, the AC50 is the concentration at which the activity in the assay is half-maximal. A low value points to greater potency.
